Among the data in US12581252B2, “Substituted pyrrolo[3,4-b]pyridines as PI3K-α inhibitors” (Relay Therapeutics, Inc., priority 2020, dated 2026) are IC50 values, retold here.

The term IC50 denotes the point on the concentration scale where inhibition reaches its midpoint.

For the experiment, the target named is H1047R PIK3CA enzyme (Homo sapiens, UniProt P42336, H1047R). Description: ADP-Glo Biochemical PIK3CA Kinase Assay. In general terms: ADP-Glo first removes unused ATP, then detects ADP through luciferase.
Sequence of H1047R PIK3CA enzyme (P42336 whole entry H1047R): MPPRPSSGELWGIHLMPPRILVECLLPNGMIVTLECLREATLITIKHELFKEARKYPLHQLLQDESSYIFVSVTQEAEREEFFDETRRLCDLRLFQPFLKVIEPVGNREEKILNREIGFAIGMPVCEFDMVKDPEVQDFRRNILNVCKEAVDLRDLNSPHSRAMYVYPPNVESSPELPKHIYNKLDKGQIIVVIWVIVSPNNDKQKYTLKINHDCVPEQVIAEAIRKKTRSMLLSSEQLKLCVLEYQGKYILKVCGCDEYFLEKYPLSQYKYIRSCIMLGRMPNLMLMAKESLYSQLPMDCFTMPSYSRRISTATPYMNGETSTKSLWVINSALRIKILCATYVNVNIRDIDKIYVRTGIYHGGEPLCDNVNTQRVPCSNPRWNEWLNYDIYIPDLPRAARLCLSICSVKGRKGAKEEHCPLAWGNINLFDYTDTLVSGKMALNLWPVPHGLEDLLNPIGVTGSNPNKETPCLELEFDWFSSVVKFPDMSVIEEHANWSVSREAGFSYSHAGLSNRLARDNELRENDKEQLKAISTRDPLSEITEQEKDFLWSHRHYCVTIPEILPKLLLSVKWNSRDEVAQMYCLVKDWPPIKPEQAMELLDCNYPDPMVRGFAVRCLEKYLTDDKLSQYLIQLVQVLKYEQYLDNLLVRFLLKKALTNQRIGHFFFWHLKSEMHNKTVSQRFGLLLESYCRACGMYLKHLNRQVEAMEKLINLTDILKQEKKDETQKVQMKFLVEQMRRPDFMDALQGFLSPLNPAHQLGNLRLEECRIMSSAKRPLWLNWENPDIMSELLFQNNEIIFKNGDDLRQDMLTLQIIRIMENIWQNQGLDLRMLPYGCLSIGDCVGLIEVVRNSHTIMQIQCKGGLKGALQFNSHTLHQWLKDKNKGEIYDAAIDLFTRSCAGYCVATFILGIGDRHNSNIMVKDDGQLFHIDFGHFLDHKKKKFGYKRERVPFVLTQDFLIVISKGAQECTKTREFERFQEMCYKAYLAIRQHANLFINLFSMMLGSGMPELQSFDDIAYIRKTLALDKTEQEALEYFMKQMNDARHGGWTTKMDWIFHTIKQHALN
Sequence of H1047R PIK3CA enzyme (P27986 whole entry partner): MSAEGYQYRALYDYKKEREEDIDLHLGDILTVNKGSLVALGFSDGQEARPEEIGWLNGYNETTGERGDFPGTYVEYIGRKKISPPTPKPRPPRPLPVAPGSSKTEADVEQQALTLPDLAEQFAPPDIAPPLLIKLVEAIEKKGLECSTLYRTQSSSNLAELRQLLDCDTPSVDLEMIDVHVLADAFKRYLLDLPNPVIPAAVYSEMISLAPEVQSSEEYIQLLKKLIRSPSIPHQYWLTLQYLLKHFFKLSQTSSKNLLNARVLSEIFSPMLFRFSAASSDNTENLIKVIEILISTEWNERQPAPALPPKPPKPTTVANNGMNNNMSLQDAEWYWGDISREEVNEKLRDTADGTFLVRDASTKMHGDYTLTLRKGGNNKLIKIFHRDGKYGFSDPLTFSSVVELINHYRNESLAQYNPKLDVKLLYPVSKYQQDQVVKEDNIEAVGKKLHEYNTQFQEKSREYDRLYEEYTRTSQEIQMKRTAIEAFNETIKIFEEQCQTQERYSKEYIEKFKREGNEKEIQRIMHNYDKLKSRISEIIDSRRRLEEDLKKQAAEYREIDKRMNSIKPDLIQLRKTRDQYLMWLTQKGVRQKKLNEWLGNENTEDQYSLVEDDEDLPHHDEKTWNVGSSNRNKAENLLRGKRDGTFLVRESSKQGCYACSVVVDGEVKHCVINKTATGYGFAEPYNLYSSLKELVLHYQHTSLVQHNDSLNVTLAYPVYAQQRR
`C[C@@H](C#N)Oc1cc(NC(=O)c2cc(F)cc(C(F)(F)F)c2)c2c(c1)C(=O)N[C@H]2c1cc(F)ccc1Cl` (single isomer, unassigned) [Compound I-2009] showed an IC50 of at most 0.1 µM.

Take `O=C1N[C@@H](c2cc(F)ccc2Cl)c2c(NC(=O)[C@H]3CC[C@@H](O)C3)cc(Br)cc21` (single isomer, unassigned) [Compound I-2102]: the IC50 fell in the range of 10 to 100 µM.

`O=C1N[C@H](c2cc(F)ccc2Cl)c2c(NC(=O)[C@H]3CC[C@@H](O)C3)cc(Br)cc21` (single isomer, unassigned) [Compound I-2103] displayed a half-maximal inhibitory concentration (IC50) of 10 to 100 µM.

Turning to `O=C1N[C@@H](c2cc(F)ccc2Cl)c2c(NC(=O)[C@@H]3CC[C@H](O)C3)cc(Br)cc21` (single isomer, unassigned) [Compound I-2104], the IC50 is 10 to 100 µM.

For `O=C1N[C@H](c2cc(F)ccc2Cl)c2c(NC(=O)[C@@H]3CC[C@H](O)C3)cc(Br)cc21` (single isomer, unassigned) [Compound I-2105], the half-inhibitory concentration (IC50) was in the range of 10 to 100 µM.

Turning to `O=C(Nc1cccc2c1[C@H](C1CCCC[C@@H]1O)NC2=O)c1cc(F)cc(C(F)(F)F)c1` (single isomer, unassigned) [Compound I-2110], the 50% inhibitory concentration (IC50) fell in the range of 10 to 100 µM.

In turn, `O=C1N[C@H](c2cc(F)ccc2Cl)c2c(NC(=O)N3CCC[C@@](O)(C(F)(F)F)C3)cccc21` (single isomer, unassigned) [Compound I-2113] had an IC50 of 10 to 100 µM.

Take `O=C1N[C@H](c2cc(F)ccc2Cl)c2c(NC(=O)N3CCC[C@](O)(C(F)(F)F)C3)cccc21` (single isomer, unassigned) [Compound I-2114]: the 50% inhibitory concentration (IC50) fell in the range of 10 to 100 µM.

In turn, `O=C1N[C@@H](c2cc(F)ccc2Cl)c2c(NC(=O)N3CCC[C@](O)(C(F)(F)F)C3)cccc21` (single isomer, unassigned) [Compound I-2115] returned an IC50 of 10 to 100 µM.

As for `O=C1N[C@@H](c2cc(F)ccc2Cl)c2c(NC(=O)N3CCC[C@@](O)(C(F)(F)F)C3)cccc21` (single isomer, unassigned) [Compound I-2116], the half-inhibitory concentration (IC50) fell in the range of 10 to 100 µM.

As for `CC(C)(O)c1cc(NC(=O)N2C[C@H](O)c3ccccc32)c2c(c1)C(=O)N[C@@H]2c1cc(F)ccc1Cl` (single isomer, unassigned) [Compound I-2121], the concentration for half-maximal inhibition (IC50) fell in the range of 1 to 10 µM.

`CC(C)(O)c1cc(NC(=O)N2C[C@@H](O)c3ccccc32)c2c(c1)C(=O)N[C@@H]2c1cc(F)ccc1Cl` (single isomer, unassigned) [Compound I-2122] displayed a half-maximal inhibitory concentration (IC50) of 10 to 100 µM.

`CC(C)(O)c1cc(NC(=O)N2C[C@H](O)c3ccccc32)c2c(c1)C(=O)N[C@H]2c1cc(F)ccc1Cl` (single isomer, unassigned) [Compound I-2123] gave a half-maximal inhibitory concentration (IC50) of 0.5 to 1 µM.

Consider `O=C1N[C@@H](c2cc(F)ccc2Cl)c2c(NC(=O)N3C[C@H](O)c4cc(F)ccc43)cccc21` (single isomer, unassigned) [Compound I-2126], for which the IC50 fell in the range of 0.5 to 1 µM.

`O=C1N[C@H](c2cc(F)ccc2Cl)c2c(NC(=O)N3C[C@H](O)c4cc(F)ccc43)cccc21` (single isomer, unassigned) [Compound I-2128] returned an IC50 of 10 to 100 µM.

As for `O=C1N[C@H](c2cc(F)ccc2Cl)c2c(NC(=O)N3C[C@@H](O)c4cc(F)ccc43)cccc21` (single isomer, unassigned) [Compound I-2129], the half-maximal inhibitory concentration (IC50) lay in the range of 10 to 100 µM.

`Nc1cc(NC(=O)N2C[C@H](O)c3ccccc32)c2c(c1)C(=O)N[C@@H]2c1cc(F)ccc1Cl` (single isomer, unassigned) [Compound I-2130] had a half-maximal inhibitory concentration (IC50) of 1 to 10 µM.

Compound `Nc1cc(NC(=O)N2C[C@@H](O)c3ccccc32)c2c(c1)C(=O)N[C@@H]2c1cc(F)ccc1Cl` (single isomer, unassigned) [Compound I-2131] gave a concentration for half-maximal inhibition (IC50) of 1 to 10 µM.

Take `Nc1cc(NC(=O)N2C[C@H](O)c3ccccc32)c2c(c1)C(=O)N[C@H]2c1cc(F)ccc1Cl` (single isomer, unassigned) [Compound I-2132]: the IC50 was at most 0.1 µM.

In turn, `O=C1N[C@H](c2cc(F)ccc2Cl)c2c(NC(=O)N3C[C@H](O)c4c(F)cccc43)cccc21` (single isomer, unassigned) [Compound I-2143] showed an IC50 of 0.5 to 1 µM.

`O=C1N[C@@H](c2cc(F)ccc2Cl)c2c(NC(=O)N3C[C@@H](O)c4c(F)cccc43)cccc21` (single isomer, unassigned) [Compound I-2144] displayed a 50% inhibitory concentration (IC50) of 1 to 10 µM.

In the case of `O=C1N[C@H](c2cc(F)ccc2Cl)c2c(NC(=O)N3C[C@@H](O)c4c(F)cccc43)cccc21` (single isomer, unassigned) [Compound I-2145], the IC50 was in the range of 1 to 10 µM.

Consider `O=C1N[C@H](c2cc(F)ccc2Cl)c2c(NC(=O)[C@H]3C[C@H](O)C[C@@H](C(F)(F)F)C3)cc(Br)cc21` (single isomer, unassigned) [Compound I-2150], for which the concentration for half-maximal inhibition (IC50) fell in the range of 1 to 10 µM.

For the compound `O=C1N[C@@H](c2cc(F)ccc2Cl)c2c(NC(=O)[C@H]3C[C@H](O)C[C@@H](C(F)(F)F)C3)cc(Br)cc21` (single isomer, unassigned) [Compound I-2151], the IC50 was in the range of 1 to 10 µM.

`O=C1N[C@@H](c2cc(F)ccc2Cl)c2c(NC(=O)[C@H]3CC(C(F)(F)F)C[C@@H](O)C3)cc(Br)cc21` (single isomer, unassigned) [Compound I-2152] came in with an IC50 of 1 to 10 µM.

Consider `O=C1N[C@H](c2cc(F)ccc2Cl)c2c(N[C@H]3CCOc4ccccc43)cc(-c3cnn(C(F)F)c3)nc21` (single isomer, unassigned) [Compound I-2159], for which the IC50 fell in the range of 1 to 10 µM.

In the case of `O=C1N[C@@H](c2cc(F)ccc2Cl)c2c(N[C@H]3CCOc4ccccc43)cc(-c3cnn(C(F)F)c3)nc21` (single isomer, unassigned) [Compound I-2160], the half-maximal inhibitory concentration (IC50) was in the range of 10 to 100 µM.

Take `O=C1N[C@@H](c2cc(F)ccc2Cl)c2c(NC(=O)[C@@H]3C[C@@H](O)C[C@H](C(F)(F)F)C3)cccc21` (single isomer, unassigned) [Compound I-2175]: the IC50 was in the range of 10 to 100 µM.

Compound `O=C1N[C@H](c2cc(F)ccc2Cl)c2c(NC(=O)[C@@H]3C[C@@H](O)C[C@H](C(F)(F)F)C3)cccc21` (single isomer, unassigned) [Compound I-2176] came in with a half-inhibitory concentration (IC50) of 10 to 100 µM.

For `O=C1N[C@@H](c2cc(F)ccc2Cl)c2c(NC(=O)[C@H]3C[C@H](O)C[C@@H](C(F)(F)F)C3)cccc21` (single isomer, unassigned) [Compound I-2177], the IC50 lay within 1 to 10 µM.

`O=C1N[C@H](c2cc(F)ccc2Cl)c2c(NC(=O)[C@H]3C[C@H](O)C[C@@H](C(F)(F)F)C3)cccc21` (single isomer, unassigned) [Compound I-2178] showed an IC50 of 10 to 100 µM.

Compound `O=C1N[C@@H](c2cc(F)ccc2Cl)c2c(NC(=O)[C@H]3C[C@H](O)C[C@@H](C(F)(F)F)C3)cc(Br)cc21` (single isomer, unassigned) [Compound I-2179] yielded an IC50 of 0.5 to 1 µM.

For `C[C@]1(O)CN(C(=O)Nc2cccc3c2[C@@H](c2cc(F)ccc2Cl)NC3=O)c2ccccc21` (single isomer, unassigned) [Compound I-2203], the IC50 is 1 to 10 µM.

The compound `C[C@@]1(O)CN(C(=O)Nc2cccc3c2[C@@H](c2cc(F)ccc2Cl)NC3=O)c2ccccc21` (single isomer, unassigned) [Compound I-2204] displayed an IC50 of 1 to 10 µM.

`C[C@@]1(O)CN(C(=O)Nc2cccc3c2[C@H](c2cc(F)ccc2Cl)NC3=O)c2ccccc21` (single isomer, unassigned) [Compound I-2206]: the concentration for half-maximal inhibition (IC50) fell in the range of 10 to 100 µM.

On to `O=C1N[C@H](c2cc(F)ccc2Cl)c2c(NC(=O)N3C[C@H](O)c4cccc(F)c43)cccc21` (single isomer, unassigned) [Compound I-2207], for which the concentration for half-maximal inhibition (IC50) is 1 to 10 µM.

In turn, `O=C1N[C@H](c2cc(F)ccc2Cl)c2c(NC(=O)N3C[C@@H](O)c4cccc(F)c43)cccc21` (single isomer, unassigned) [Compound I-2208] showed an IC50 of 10 to 100 µM.

`O=C1N[C@@H](c2cc(F)ccc2Cl)c2c(NC(=O)N3C[C@H](O)c4cccc(F)c43)cccc21` (single isomer, unassigned) [Compound I-2209] registered a concentration for half-maximal inhibition (IC50) of 10 to 100 µM.

Compound `O=C1N[C@@H](c2cc(F)ccc2Cl)c2c(NC(=O)N3C[C@@H](O)c4cccc(F)c43)cccc21` (single isomer, unassigned) [Compound I-2210] yielded a 50% inhibitory concentration (IC50) of 10 to 100 µM.

Regarding `O=C1N[C@H](c2cc(F)ccc2Cl)c2c(NC(=O)[C@H]3CCC[C@H](OC(F)(F)F)C3)cccc21` (single isomer, unassigned) [Compound I-2211], the IC50 was 10 to 100 µM.

On to `O=C1N[C@@H](c2cc(F)ccc2Cl)c2c(NC(=O)[C@H]3CCC[C@H](OC(F)(F)F)C3)cccc21` (single isomer, unassigned) [Compound I-2212], for which the IC50 was in the range of 10 to 100 µM.

The compound `O=C1N[C@H](c2cc(F)ccc2Cl)c2c(NC(=O)[C@@H]3CCC[C@H](OC(F)(F)F)C3)cccc21` (single isomer, unassigned) [Compound I-2213] showed a concentration for half-maximal inhibition (IC50) of 10 to 100 µM.

In turn, `O=C1N[C@@H](c2cc(F)ccc2Cl)c2c(NC(=O)[C@@H]3CCC[C@H](OC(F)(F)F)C3)cccc21` (single isomer, unassigned) [Compound I-2214] had an IC50 of 10 to 100 µM.

For `O=C1N[C@H](c2cc(F)ccc2Cl)c2c(NC(=O)[C@@H]3CCC[C@@H](OC(F)(F)F)C3)cccc21` (single isomer, unassigned) [Compound I-2215], the IC50 was in the range of 10 to 100 µM.

`O=C1N[C@@H](c2cc(F)ccc2Cl)c2c(NC(=O)[C@@H]3CCC[C@@H](OC(F)(F)F)C3)cccc21` (single isomer, unassigned) [Compound I-2216] registered an IC50 of 10 to 100 µM.

For `O=C1N[C@H](c2cc(F)ccc2Cl)c2c(NC(=O)[C@H]3CCC[C@@H](OC(F)(F)F)C3)cccc21` (single isomer, unassigned) [Compound I-2217], the half-inhibitory concentration (IC50) lay within 10 to 100 µM.

As for `O=C1N[C@@H](c2cc(F)ccc2Cl)c2c(NC(=O)[C@H]3CCC[C@@H](OC(F)(F)F)C3)cccc21` (single isomer, unassigned) [Compound I-2218], the IC50 is 10 to 100 µM.

Take `O=C(Nc1cccc2c1[C@@H](C1CC1)NC2=O)c1cc(F)cc(C(F)(F)F)c1` (single isomer, unassigned) [Compound I-2220]: the IC50 was in the range of 10 to 100 µM.
